Test results as given in PMC4370192, “Discovery of Specific Inhibitors for Intestinal E. coli β-Glucuronidase through In Silico Virtual Screening” (The Scientific World Journal, 2015).

Legend:
[1] = target: T1, E. coli β-glucuronidase (eβG) (Escherichia coli, UniProt P05804); test: In vitro βG-activity assay (pNPG hydrolysis), eβG; type: biochemical
T1 construct: histidine tag (N); made in house; host or cells: E. coli BL21 (DE3)
Procedure: (§1) Plasmid pRESTB containing βG gene and a histidine tag at the N-terminus was constructed as described. Recombinant βG (human and E. coli) was produced by isopropyl β-D-thiogalactopyranoside (IPTG) induction of BL21 (DE3) bacteria. βG was purified from bacterial supernatants by affinity chromatography on nickels Sepharose 6 Fast Flow (GE Healthcare). The column was washed by phosphate-buffered saline (PBS), with 50 mM imidazole, and βG was eluted by PBS with 250 mM imidazole. The purified βG was desalted on a Sephadex G-25 column equilibrated with PBS and stored at −80°C.
The candidate compounds were purchased from SPECS (The Netherlands). Each candidate was provided as a solid power and dissolved in 100% DMSO (Sigma-Aldrich) to 10 mM as stock. Candidates were screened for their inhibition specificity of eβG versus hβG, which were conducted at pH 7.3 or pH 5.4, in triplicate, respectively. 40 μL purified βG was treated with 10 μL compound solution at 37°C for 30 min and sequentially incubated with 50 μL of pNPG (Sigma-Aldrich) at 37°C for 30 min. Reactions were quenched with 5 μL of 2 N sodium hydroxide (Sigma-Aldrich). Each reaction consisted of 3.75 ng purified βG, 50 μM compound, and 5 mM pNPG in PBS containing 10% DMSO and 0.05% BSA (Sigma-Aldrich). βG-activities were measured by color development of pNP detected on a microplate reader at OD 405 nm. […] For IC50 determination, compounds at various concentrations (100 μM to 0.001 μM) were added.
Supplementary file 740815.f1.pdf: Fifty-nine candidate compounds were acquired from the initial virtually screening which was designed to target the bacterial loop of eβG and its active site. The docking energy scores of 59 candidate compounds measured by the DOCK program are -43 to -55 kcal/mol. (Table S1) The candidate compounds were purchased from SPECS (Zoetermeer, The Netherlands). Each candidate was rovided as a solid power and dissolved in 100% DMSO (Sigma-Aldrich, MO, USA) to 10 mM as stock. Candidates were screening for their inhibition specificity of eβG verse hβG, which were conducted at pH 7.3 or pH 5.4 in triplicate, respectively. 40 µL purified βG was treated with 10 µL compound solution at 37 °C for 30 min, and sequentially incubated with 50 µL of pNPG (Sigma-Aldrich) at 37 °C for 30 min. Reactions were quenched with 5 µL of 2 N sodium hydroxide (Sigma-Aldrich). Each reaction consisted of 3.75 ng purified βG, 50 µM compound, and 5 mM pNPG in PBS containing 10% DMSO and 0.05% BSA (Sigma-Aldrich). βG-activities were measured by color development of pNP detected on a microplate reader at OD 405 nm. […] Especially, the inhibiting ability against eβG activity was >95% in 7 candidates of eβG specific inhibitors (Table S1).
(§2) Fifty-nine candidate compounds were acquired from the initial virtually screening which was designed to target the bacterial loop of eβG and its active site. The docking energy scores of 59 candidate compounds measured by the DOCK program are -43 to -55 kcal/mol. (Table S1) The candidate compounds were purchased from SPECS (Zoetermeer, The Netherlands). Each candidate was provided as a solid power and dissolved in 100% DMSO (Sigma-Aldrich, MO, USA) to 10 mM as stock. Candidates were screening for their inhibition specificity of eβG verse hβG, which were conducted at pH 7.3 or pH 5.4 in triplicate, respectively. 40 μL purified βG was treated with 10 μL compound solution at 37 °C for 30 min, and sequentially incubated with 50 μL of pNPG (Sigma-Aldrich) at 37 °C for 30 min. Reactions were quenched with 5 μL of 2 N sodium hydroxide (Sigma-Aldrich). Each reaction consisted of 3.75 ng purified βG, 50 μM compound, and 5 mM pNPG in PBS containing 10% DMSO and 0.05% BSA (Sigma-Aldrich). βG-activities were measured by color development of pNP detected on a microplate reader at OD 405 nm. […]
percent of βG activity compared with the untreated control.
Especially, the inhibiting ability against eβG activity was >95% in 7 candidates of eβG specific inhibitors (Table S1).
Table S1. […]

human βG (hβG) = target: T2, human βG (hβG) (Homo sapiens, UniProt P08236); test: In vitro βG-activity assay (pNPG hydrolysis), hβG; type: biochemical
T2 construct: histidine tag (N); made in house; host or cells: E. coli BL21 (DE3)
T2 sequence (P08236 23-651): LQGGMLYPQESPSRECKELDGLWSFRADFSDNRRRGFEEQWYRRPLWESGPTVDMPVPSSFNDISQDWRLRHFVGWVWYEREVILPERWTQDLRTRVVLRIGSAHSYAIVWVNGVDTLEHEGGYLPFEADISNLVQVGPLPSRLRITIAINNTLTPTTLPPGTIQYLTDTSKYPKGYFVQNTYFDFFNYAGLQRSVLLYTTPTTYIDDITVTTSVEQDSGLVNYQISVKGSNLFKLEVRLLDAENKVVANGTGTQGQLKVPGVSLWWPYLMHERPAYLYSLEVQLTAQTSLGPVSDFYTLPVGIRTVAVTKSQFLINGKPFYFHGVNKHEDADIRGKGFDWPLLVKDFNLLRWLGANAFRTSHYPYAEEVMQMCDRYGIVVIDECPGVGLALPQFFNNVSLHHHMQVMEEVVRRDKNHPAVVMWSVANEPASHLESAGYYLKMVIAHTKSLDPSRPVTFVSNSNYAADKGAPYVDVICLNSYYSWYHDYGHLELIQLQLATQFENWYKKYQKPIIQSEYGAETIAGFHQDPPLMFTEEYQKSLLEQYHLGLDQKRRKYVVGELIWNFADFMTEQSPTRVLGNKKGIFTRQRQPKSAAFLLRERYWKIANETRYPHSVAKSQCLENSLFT
Procedure: as §1
The candidate compounds were purchased from SPECS (The Netherlands). Each candidate was provided as a solid power and dissolved in 100% DMSO (Sigma-Aldrich) to 10 mM as stock. Candidates were screened for their inhibition specificity of eβG versus hβG, which were conducted at pH 7.3 or pH 5.4, in triplicate, respectively. 40 μL purified βG was treated with 10 μL compound solution at 37°C for 30 min and sequentially incubated with 50 μL of pNPG (Sigma-Aldrich) at 37°C for 30 min. Reactions were quenched with 5 μL of 2 N sodium hydroxide (Sigma-Aldrich). Each reaction consisted of 3.75 ng purified βG, 50 μM compound, and 5 mM pNPG in PBS containing 10% DMSO and 0.05% BSA (Sigma-Aldrich). βG-activities were measured by color development of pNP detected on a microplate reader at OD 405 nm.
as §2, with “(Table” for “Fifty-nine candidate compounds were acquired from the initial virtually screening which was designed to target the bacterial loop of eβG and its active site. The docking energy scores of 59 candidate compounds measured by the DOCK program are -43 to -55 kcal/mol. (Table”, “rovided” for “provided”, “µL” for “μL”, “µM” for “μM”
candidate compounds were purchased from SPECS (Zoetermeer, The Netherlands). Each candidate was provided as a solid power and dissolved in 100% DMSO (Sigma-Aldrich, MO, USA) to 10 mM as stock. Candidates were screening for their inhibition specificity of eβG verse hβG, which were conducted at pH 7.3 or pH 5.4 in triplicate, respectively. 40 μL purified βG was treated with 10 μL compound solution at 37 °C for 30 min, and sequentially incubated with 50 μL of pNPG (Sigma-Aldrich) at 37 °C for 30 min. Reactions were quenched with 5 μL of 2 N sodium hydroxide (Sigma-Aldrich). Each reaction consisted of 3.75 ng purified βG, 50 μM compound, and 5 mM pNPG in PBS containing 10% DMSO and 0.05% BSA (Sigma-Aldrich). βG-activities were measured by color development of pNP detected on a microplate reader at OD 405 nm.

[2] = 50 μM compound, pH 7.3, percent of activity vs untreated control
[3] = pH 5.4, percent of activity vs untreated control
[4] = read-out: inhibition of eβG activity

T1 sequence (P05804 whole entry): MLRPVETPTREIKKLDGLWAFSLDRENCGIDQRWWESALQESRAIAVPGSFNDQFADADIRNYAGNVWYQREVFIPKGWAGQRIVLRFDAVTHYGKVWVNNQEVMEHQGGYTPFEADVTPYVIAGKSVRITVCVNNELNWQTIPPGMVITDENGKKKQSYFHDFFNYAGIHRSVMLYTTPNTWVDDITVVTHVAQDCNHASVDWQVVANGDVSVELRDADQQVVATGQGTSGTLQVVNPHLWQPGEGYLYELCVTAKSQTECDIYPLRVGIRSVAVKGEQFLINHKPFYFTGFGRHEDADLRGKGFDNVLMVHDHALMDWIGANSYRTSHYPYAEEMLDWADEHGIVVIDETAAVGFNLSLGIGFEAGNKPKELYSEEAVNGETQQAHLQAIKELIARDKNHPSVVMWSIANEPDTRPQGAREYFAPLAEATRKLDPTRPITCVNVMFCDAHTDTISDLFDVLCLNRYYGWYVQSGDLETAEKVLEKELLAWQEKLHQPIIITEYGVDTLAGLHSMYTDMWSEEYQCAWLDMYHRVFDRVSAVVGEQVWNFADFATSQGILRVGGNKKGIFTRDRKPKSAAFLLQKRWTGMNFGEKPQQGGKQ

Compound	eβG activity (%) with 50 μM compound [1, 2] [%]	hβG activity (%) with 50 μM compound (human βG (hβG); [3]) [%]	also measured
CCOC(=O)c1ccc(NC(=S)N2CCN(C)CC2)cc1 [Compound 1089]	47.22	119.17	
Cc1cc(/C=C2\SC(=Nc3ccc(F)cc3)NC2=O)c(C)n1-c1ccc(S(N)(=O)=O)cc1 [Compound 1135]	3.70	118.10	
O=C(O)c1ccc(NS(=O)(=O)c2ccc(Br)cc2)cc1O [Compound 4465]	10.04	99.50	
CC(=O)Nc1ccc(S(=O)(=O)Oc2ccc([N+](=O)[O-])cc2)cc1 [Compound 7100]	20.58	112.56	
COc1cc2ccccc2cc1C(=O)N1CCN(C)CC1 [Compound 0030]	58.19	111.74	
Cc1cccc(C(=O)NC2(C(F)(F)F)C(=O)Nc3c2c(=O)[nH]c(=O)n3-c2ccc(Cl)cc2)c1 (stereo not drawn) [Compound 8572]	17.66	102.81	
CC1=C(C)CC(C(=O)Nc2c(C)cccc2C)C(C(=O)O)C1 (stereo not drawn) [Compound 5259]	34.05	106.20	
CC1(C)CC(O)C(C(O)c2cccc([N+](=O)[O-])c2)C(C)(C)N1 (stereo not drawn) [Compound 4021]	28.56	103.06	
O=[N+]([O-])C12CNCC([N+](=O)[O-])(CNC1)C2 [Compound 8013b]	32.91	93.72	
O=C1c2ccccc2C(=O)c2c1cccc2S(=O)(=O)Nc1ccc(Cl)cc1 [Compound 8074]	22.15	109.09	
Cc1ccc2c(c1)C1CN(C)CCC1N2C(=O)c1cc(Cl)ccc1[N+](=O)[O-] (stereo not drawn) [Compound 3959]	42.88	105.45	
CCc1sc(NC(=O)C2CCCCC2C(=O)O)nc1-c1ccccc1 (stereo not drawn) [Compound 1501]	27.85	105.12	
CC1=NN(c2ccc(Cl)cc2)C(=O)/C1=C\N1CCN(C)CC1 [Compound 6003]	9.76	93.06	
CNC(=S)Nn1cnc2c(cnn2-c2ccccc2)c1=N [Compound 2138]	19.23	107.27	
CCN1C(=O)c2cccc3c(S(=O)(=O)N4CCN(C)CC4)ccc1c23 [Compound 1046]	45.94	106.69	
CCN1CCN(S(=O)(=O)c2cccc(Cl)c2)CC1 [Compound 9572]	42.66	106.78	
Cc1cccnc1NCn1c(=O)oc2cc([N+](=O)[O-])ccc21 [Compound 3043]	25.14	103.55	
Cn1c(O)c(C=NC(Cc2c[nH]c3ccccc23)C(=O)O)c(=O)n(C)c1=O (stereo not drawn) [Compound 5033]	9.33	116.12	
O=C(O)C1CCCCC1C(=O)Nc1ccc(Oc2ccc(Cl)cc2)cc1 (stereo not drawn) [Compound 1013]	34.76	126.45	
NC(N)=Nc1nc2ccc(Br)cc2c(=O)[nH]1 [Compound 2020]	13.68	84.13	
CC(C)(C)c1ccc(S(=O)(=O)/N=C2\C=CC(=O)c3ccccc32)cc1 [Compound 7145]			activity at 50 µM [1, 2]: 1%; inhibition at 10 µM [1, 4]: 55%; inhibition at 50 µM [1, 4]: > 95%; IC50 ([1]; recombinant eβG, pNPG substrate, pH 7.3): 31.6 µM; effect on hβG activity (human βG (hβG); 50 μM compound): does not hamper hβG activity; activity at 50 µM (human βG (hβG); 50 μM compound, pH 5.4, percent of activity vs untreated control): 120%
N=c1c(Nc2ccc(F)cc2)nnc(N)n1C(=O)c1ccccc1 [Compound 2074]	12.46	101.07	
